Test results reported in the supplement of paper PMC11451515.

Key:
Assay in all cases: AUC of viability dose-response curve (% viability x log10 dose units); higher = less sensitive
Conditions in all cases: 48 h
P12-Ichikawa = test system: P12-Ichikawa
Procedure, shortened: (§1)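 Medium-adapted leukemia cells in 1536-well plates, at 500 or 1000 cells/well, were incubated for 48 h at 37°C with library compounds in DMSO at 11 threefold doses from 47 μM to 0.79 nM. CellTiter-Glo One luminescence normalised per plate to DMSO and cell-free wells was fitted with a four-parameter log-logistic model over log10 doses. Area under the curve was integrated from this fit by trapezoidal rule, with curves beyond full viability scaled and failed quality-control curves removed.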

NOMO1 = test system: NOMO1
Procedure, shortened: as §1

SEM cells = test system: SEM cells
Procedure, shortened: as §1

[1] = RPMI 5 mM glucose + 10% dialyzed FBS

Compound	AUC of viability dose-response curve (P12-Ichikawa; HPLM + 10% dialyzed FBS)	AUC of viability dose-response curve (P12-Ichikawa; RPMI 5 mM glucose + 10% FBS)	AUC of viability dose-response curve (P12-Ichikawa; [1])	AUC of viability dose-response curve (NOMO1; HPLM + 10% dialyzed FBS)	AUC of viability dose-response curve (NOMO1; RPMI 5 mM glucose + 10% FBS)	AUC of viability dose-response curve (NOMO1; [1])	AUC of viability dose-response curve (SEM cells; HPLM + 10% dialyzed FBS)	AUC of viability dose-response curve (SEM cells; RPMI 5 mM glucose + 10% FBS)	AUC of viability dose-response curve (SEM cells; [1])
CC(C)(C)NCC(O)c1ccc(O)c(CO)c1 (stereo unspecified)	438	431	442	388	420	399	474	461	470
CN(C)C(=O)[C@H](O)[C@H](Cc1ccccc1)NC(=O)c1cc2cc(Cl)ccc2[nH]1	448	442	456	418	456	435	359	340	359
CNC(=O)c1nn(C)c2c1C(C)(C)Cc1cnc(Nc3ccc(N4CCN(C)CC4)cc3)nc1-2	404	384	376	371	400	386	269	265	275
C[C@@H](Cc1cc2c(c(C(N)=O)c1)N(CCCO)CC2)NCCOc1ccccc1OCC(F)(F)F	472	472	472	457	458	466	438	465	463
C[S+](=O)([O-])N1CCN(Cc2cc3nc(-c4cccc5[nH]ncc45)nc(N4CCOCC4)c3s2)CC1	428	420	414	381	421	384	356	348	348
CC[C@H](C)C(=O)O[C@H]1C[C@@H](C)\C=C2\C=C/[C@H](C)[C@H](CC[C@@H]3C[C@@H](O)CC(=O)O3)[C@@H]12	415	373	379	437	411	411	384	386	408
NC(=O)N1CCC(CC(=O)N2CCC([C@H]3c4ncc(Br)cc4CCc4cc(Cl)cc(Br)c43)CC2)CC1	413	395	410	442	439	432	363	355	395
CC1(C)[C@@H](O)CC[C@@]2(C)[C@H]1CC[C@]3(C)[C@@H]2C(=O)\C=C/4[C@@H]5C[C@](C)(CC[C@]5(C)CC[C@@]34C)C(O)=O	464	468	461	465	448	460	468	470	477
CCC(=O)N1CCN(CC1)C2=C(C=C(C=C2)N3C(=O)\C=C/C4=C3C5=CC(=CC=C5N=C4)C6=CN=C7C=CC=CC7=C6)C(F)(F)F	406	328	347	376	388	352	286	297	300
